Experimental data from paper PMC6284057, “Combined Antibacterial Effects of Goat Cathelicidins With Different Mechanisms of Action” (Frontiers in Microbiology, 2018).
Like-named read-outs stand apart in the source and are kept apart here. No end group written: not given here.

Assays:
E. cloacae (XDR CI 4172) = test: microbe, parasite or virus in culture; type: cell-based, Enterobacter cloacae; details: read-out: Minimum inhibitory concentration
Experimental: (§1) Antimicrobial assay was performed as described previously ([Panteleev et al., 2017b]). Briefly, mid-log phase bacterial test cultures were diluted with the 2× Mueller-Hinton broth (MH, Sigma) supplemented with 1.8% NaCl or without it so that to reach a final cell concentration of 10^6 CFU/ml. 50 μl aliquots of the obtained bacterial suspension were added to 50 μl of the peptide solutions serially diluted with 0.1% water solution of bovine serum albumin (BSA) in 96-well flat-bottom polystyrene microplates (Eppendorf #0030730011). After incubation at 37°C and 900 rpm for 24 h the minimum inhibitory concentrations (MIC) were determined as the lowest peptide concentrations that prevented growth of a test microorganism observed as visible turbidity. The results were expressed as the median values determined on the basis of at least three independent experiments performed in triplicate.

K. pneumoniae (CI 287) = type: cell-based, Klebsiella pneumoniae
Experimental: as §1
(§2) The peptides were twofold serially diluted with 0.1% BSA in 96-well microplates (Eppendorf #0030730011). Then, the peptide solutions were mixed in the new test plate crosswise in such a way that the resulting checkerboard contained each combination of the cathelicidins in eight doubly increasing concentrations, with wells containing the highest concentration of each peptide at opposite corners ([Berditsch et al., 2015]). Then, the antimicrobial assay was performed as described in the previous section. […] The results were expressed as the median values determined on the basis of three independent experiments performed in duplicate. Estimation of synergistic effects of different cathelicidins was performed by calculating the fractional inhibitory concentration index (FICI) according to the equation: FICI = [À]/MICÀ + [B]/MICB, where MICÀ and MICB are the MICs of the individual substances, while [A] and [B] are the MICs of A and B when used together. A synergistic effect was defined at a FICI ≤ 0.5.

[1] = tested on: A. baumannii (XDR CI 2675); type: cell-based, Acinetobacter baumannii; details: for Fractional inhibitory concentration (FICA, FICB): [X]/MICX; for Fractional inhibitory concentration (FICA, FICB) / MIC of the peptide when used together ([A], [B]): 0.9% NaCl; for MIC of the peptide when used together ([A], [B]): in the mix ChMAP-28 + mini-ChBac7.5Nα, other peptide at sub-inhibitory concentration; for MIC of the individual peptide (MICA, MICB): peptide used individually, medium with physiological NaCl (0.9%), median of 3 experiments in duplicate
Experimental: as §1, §2

P. aeruginosa PAO1 = type: cell-based, Pseudomonas aeruginosa; details: PAO1, 24 h
Experimental: as §1
The peptides were twofold serially diluted with 0.1% BSA in 96-well microplates (Eppendorf #0030730011). […] The results were expressed as the median values determined on the basis of three independent experiments performed in duplicate. […]

S. aureus 209P = type: cell-based, Staphylococcus aureus; details: 24 h
Experimental: as §1, §2

[2] = tested on: E. coli XDR CI 1057 (26 days with mini-ChBac7.5Nα)
Experimental: as §1, with “After incubation at 37°C and 900 rpm for 24 h the minimum inhibitory concentrations (MIC) were determined as the lowest peptide concentrations that prevented growth of a test microorganism observed as visible turbidity.” left out
(§3) Resistance induction experiments were performed using the previously described method ([Chernysh et al., 2015]) with some modifications. Briefly, on day 1, the overnight culture of wild-type bacteria was diluted with the 2× MH broth containing 1.8% NaCl so that to reach a final cell concentration of 10^6 CFU/ml. 50 μl aliquots of the obtained bacterial suspension were added to 50 μl of the peptide solutions serially diluted with 0.1% water solution of BSA in 96-well microplates (Eppendorf #0030730011). After incubation at 37°C and 900 rpm for 22 ± 2 h, MICs were determined as described above. For each subsequent daily transfer, 5 μl of the inoculum taken from the first well with a sub-inhibitory drug concentration were diluted with 1 ml of the fresh 2× MH broth supplemented with 1.8% NaCl. […] 26 repeated passages in the presence of antimicrobial agents were made for each bacterial strain during the experiment. […] Control serial passages in the absence of the agent were also performed.

[3] = tested on: E. coli XDR CI 1057 (26 days without antimicrobial agent)
Experimental: as §1, with “After incubation at 37°C and 900 rpm for 24 h the minimum inhibitory concentrations (MIC) were determined as the lowest peptide concentrations that prevented growth of a test microorganism observed as visible turbidity.” left out
as §3

[4] = tested on: human red blood cells (hRBC); test: Hemolysis (hemoglobin release assay); type: cell-based; details: 1.5 h incubation, hRBC of 3 independent donors
Experimental: Hemolytic activity of the peptides was tested against the fresh suspension of human red blood cells (hRBC) using the hemoglobin release assay as described previously ([Panteleev et al., 2016]). Three experiments were performed with the hRBC from blood samples obtained from independent donors. The obtained data were represented as average means with standard deviations. The cytotoxicity of the peptides against HEK293T (transformed human embryonic kidney cells) and HEF (human embryonic fibroblasts) cell lines was studied using the colorimetric 3-(4,5-dimethylthiazol-2-yl)-2,5-diphenyltetrazolium bromide (MTT) dye reduction assay according to ([Panteleev and Ovchinnikova, 2017]). Three independent experiments were performed for each peptide. Half maximal inhibitory concentration (IC50) values were estimated as described previously ([Kuzmin et al., 2018]).

E. coli XDR CI 1057 = details: for MIC value at transfer “1”: MH broth with 0.9% NaCl, 37°C, legend covers both strains, values match XDR CI 1057
Experimental: Resistance induction experiments were performed using the previously described method ([Chernysh et al., 2015]) with some modifications. Briefly, on day 1, the overnight culture of wild-type bacteria was diluted with the 2× MH broth containing 1.8% NaCl so that to reach a final cell concentration of 10^6 CFU/ml. 50 μl aliquots of the obtained bacterial suspension were added to 50 μl of the peptide solutions serially diluted with 0.1% water solution of BSA in 96-well microplates (Eppendorf #0030730011). After incubation at 37°C and 900 rpm for 22 ± 2 h, MICs were determined as described above. For each subsequent daily transfer, 5 μl of the inoculum taken from the first well with a sub-inhibitory drug concentration were diluted with 1 ml of the fresh 2× MH broth supplemented with 1.8% NaCl. […] Control serial passages in the absence of the agent were also performed.

[5] = 0.9% NaCl, Mueller-Hinton broth, 10^6 CFU/ml, 0.1% BSA, 37°C, 24 h, median of at least 3 experiments
[6] = Without NaCl, Mueller-Hinton broth, 10^6 CFU/ml, 0.1% BSA, 37°C, 24 h, median of at least 3 experiments
[7] = Table 4, strain after 26 days with mini-ChBac7.5Nα (selection in MH broth with 0.9% NaCl)
[8] = With 0.9% NaCl, resistant strain, 26 days with mini-ChBac7.5Nα
[9] = Without salt, resistant strain, 26 days with mini-ChBac7.5Nα
[10] = Table 4, strain after 26 days without antimicrobial agent (selection in MH broth with 0.9% NaCl)
[11] = With 0.9% NaCl, control strain, 26 days without antimicrobial agent
[12] = Without salt, control strain, 26 days without antimicrobial agent

Sequence | MIC (E. cloacae (XDR CI 4172); [5]) [µM] | MIC (E. cloacae (XDR CI 4172); [6]) [µM] | MIC of the individual peptide (MICA, MICB) (K. pneumoniae (CI 287); CI 287, 24 h) [µM] | Fractional inhibitory concentration (FICA, FICB) [1] | MIC of the peptide when used together ([A], [B]) [1] [µM] | MIC of the individual peptide (MICA, MICB) [1] [µM] | Fractional inhibitory concentration (FICA, FICB) (S. aureus 209P) | MIC of the individual peptide (MICA, MICB) (S. aureus 209P) [µM] | Minimum inhibitory concentration [2, 7] [µM] | Minimum inhibitory concentration [2, 8] [µM] | Minimum inhibitory concentration [2, 9] [µM] | Minimum inhibitory concentration [3, 10] [µM] | Minimum inhibitory concentration [3, 11] [µM] | Minimum inhibitory concentration [3, 12] [µM] | MIC value at transfer “1” (E. coli XDR CI 1057) [µM] | other results
GRFKRFRKKLKRLWHKVGPFVGPILHY [ChMAP-28] | 0.25 | 0.125 | 0.5 | 0.125 | 0.03 | 0.25 | 0.063 | 0.5 | 0.125 | 0.125 | 0.125 | 0.125 | 0.125 | 0.125 | 0.125 | MIC (E. cloacae (XDR CI 4172); Table S2, XDR clinical isolate, NaCl content of medium not stated): 0.25 µM; Fractional inhibitory concentration (FICA, FICB) (K. pneumoniae (CI 287); [X]/MICX, 0.9% NaCl): 0.125; Fractional inhibitory concentration (FICA, FICB) (P. aeruginosa PAO1): 0.5; half maximal hemolysis concentration (HC50) ([4]; hemoglobin release): ~100 µM
RRLRPRRPRLPRPRPRPRPRPR [mini-ChBac7.5Nα] | 4 | 1 | 16 | 0.008 | 0.5 | >32 | 0.125 | 16 | >128 | >256 | 1 | 8 | 8 | 1 | 8 | Fractional inhibitory concentration (FICA, FICB) (K. pneumoniae (CI 287); CI 287, 24 h): 0.125; MIC of the individual peptide (MICA, MICB) (P. aeruginosa PAO1): >32 µM; red blood cells lysed ([4]; at the concentration of 100 μM): 2%; MIC value after selection (E. coli XDR CI 1057; after eight passages, highest concentration tested 256 μM, MH broth, 0.9% NaCl): > 256 µM
